Data: US20050249805A1, “Compositions and methods for treating hepatitis C virus (HCV) infection” (priority 2003, published 2005)

Experiments:
[1] = test system: carboxylesterase; assay: Effect of enzyme inhibitors on hydrolysis of III in human liver microsomes; format: biochemical; details: for inhibition of hydrolysis of III: highest concentrations (NaF 500 mM, BNPP 500 uM); for effect on hydrolysis of III: PMSF 20-500 uM, Proadifen 5-100 uM
Experimental: Human male liver microsomes (Xenotech LLC, Kansas City, CS) were incubated with III in presence of increasing concentrations of known inhibitors of carboxylesterase, protease, and cytochrome P450 enzymes, followed by LC/MS/MS analysis of a parent compound and a primary metabolite aniline. […] Incubations were carried out at 37° C., at final concentrations of 0.1 M potassium phosphate buffer/0.1 mM EDTA, pH 7.4, specified concentration of inhibitor, 2 μM substrate, 0.5 mg/mL microsomal protein, 0.1% DMSO, 0.5% acetonitrile, in absence of NADPH. Incubations were started with a substrate, following 10 min preincubation of microsomal reaction mixture with inhibitors at 37° C. Reactions were stopped at specified time points with acetonitrile/methanol/DMSO (50:25:25) containing an internal standard.

[2] = molecular target: carboxylesterase; assay: IC50 of carboxylesterase inhibitor (reduction in metabolic conversion of anti-HCV compound); format: biochemical
Text: The suitability of a carboxylesterase inhibitor may be confirmed by the guidance provided herein and by methods well known in the art. In one embodiment, in vitro systems may be used. For example, body fluids (e.g., blood), tissue homogenates, or microsomal preparations from tissues (e.g., liver, intestine, etc.) are contacted with the anti-HCV compound in presence or absence of varying concentrations of inhibitor. Decrease in substrate concentration and/or accumulation of metabolic product (e.g., aniline metabolite) are measured by techniques that include, by way of example and not limitation, LC/MS/MS, GC/MS and/or HPLC. These initial determinations can provide an IC50 of the carboxylesterase inhibitor sufficient to affect biotransformation of the anti-HCV compounds. Moroever, use of purified carboxylesterase enzymes, cDNA expressed enzymes, cells transfected with cloned carboxylesterase genes, etc., can be used to identify the specific enzymes responsible for the biotransformation.
Generally, an inhibitor plasma concentration of 5 μM or less is a reasonable IC50 for in vivo applications.

[3] = Effect of BNPP pretreatment on exposure of III in mice; details: mice pretreated with BNPP vs untreated
Experimental: (§4) Balb/c male mice were predosed intraperitoneally with 100 mg/kg (20 mg/mL) of bis(p-nitrophenyl) phosphate (BNPP) in ethanol/polyethylene glycol (PEG400) 10:40 v/v or the vehicle, one hour before dosing with III at 1 mg/kg (1 mg/mL) by intravenous bolus in PEG400, or at 30 mg/kg (5 mL/kg) orally in TGPS/PEG400/PG/PBS.
(§5) Blood samples were collected into heparinized Microtainer tubes, spiked with 30% BNPP solution in ethanol, 10 μl/mL blood. Livers were snap frozen in liquid nitrogen. Samples were stored at −80° C. until analyzed by LC/MS/MS procedure, as described below.
(§6) The MRM mode of detection was used for LC/MS/MS analysis. Test compounds were extracted from plasma by direct protein precipitation with a mixture of acetonitrile, ethanol and dimethyl sulfoxide (DMSO) (2:1:1 v/v) and internal standard. Following vortexing and centrifugation, 10 μL of the extract was analyzed by LC-MS/MS.
(§7) Liver homogenate (20% volume in DMSO: water) was prepared using a Polytron homogenizer. Test compounds were extracted from 100 μL of the homogenized mixture as described for plasma and analyzed by LC/MS/MS.
(§8) LC/MS/MS was performed on PE-Sciex API3000 triple quadrupole mass spectrometer, using Betasil C8 column (3×50 mm, 3 μm), with mobile phase A: 0.1% formic acid in water, and B: 0.1% formic acid in acetonitrile. Multiple reaction monitoring (MRM) in the positive ionization mode and Analyst 1.1 software was used for quantitation and data acquisition.

[4] = test system: carboxylesterase; assay: Hydrolysis of Compound III in human small intestinal microsomes, effect of BNPP; format: in vitro ADME
[5] = test system: carboxylesterase; assay: Hydrolysis of Compound III in human colon microsomes, effect of BNPP; format: in vitro ADME
[6] = test system: pig liver carboxylesterase (EC 3.1.1.1); assay: Hydrolysis of III by purified pig liver carboxylesterase; format: biochemical, porcine; details: enzyme concentration dependent
Experimental: (§1) The following purified enzymes were used for assays: carboxylesterase from porcine liver (EC 3.1.1.1, Sigma E3019); butyrylcholine esterase, equine serum (pseudocholinesterase EC 3.1.1.8, Sigma C1057); and acetylcholine esterase from electrical eel (EC 3.1.1.7, Sigma C2629).
(§2) Purified enzyme preparations (0.2-2.0 units/mL) were incubated 0-30 min at 37° C. in 0.1 M potassium phosphate buffer, 0.1 mM EDTA, pH 7.4 and 0.5 mg/mL of bovine serum albumin. The substrate was delivered in 0.02% DMSO and 0.6% acetonitrile. Incubations were performed for 0-30 min at 37° C., separately for each time point. The reactions were terminated by precipitation with acetonitrile/ethanol/DMSO mixture, followed by filtering and LC/MS/MS analysis. […] Initial rates of substrate disappearance or product appearance were calculated by linear regression of 5-6 separate incubations.

[7] = mouse, in vivo, po
Experimental: as §4, §5, §6, §7, §8

[8] = Metabolic stability in human liver microsomes; format: in vitro ADME
Experimental: (§3) Liver microsomes prepared from human (male and/or female) or Sprague-Dawley rat (female) (Xenotech LLC, Kansas City, CS), were incubated with compound II (FIG. 3) or III (FIG. 4), followed by LC/MS/MS analysis of a parent compound and a primary metabolite aniline. Incubations were carried out at 37° C., at final concentrations of 0.1 M potassium phosphate buffer/0.1 mM EDTA, pH 7.4, 1 μM substrate, 0.5 mg/mL microsomal protein, 0.01% DMSO, 0.3% acetonitrile, in presence or absence of 1 mM NADPH. Reactions were stopped at specified time points with acetonitrile/methanol/DMSO (50:25:25) containing an internal standard.

[9] = molecular target: T1, butyrylcholinesterase (BuChE: EC 3.1.1.8) (Equus caballus, UniProt P81908); assay: Hydrolysis of III by purified butyrylcholinesterase; format: biochemical, equine
T1 construct: butyrylcholine esterase, equine serum (pseudocholinesterase EC 3.1.1.8, Sigma C1057); purchased Sigma C1057; host or cells: equine serum
T1 sequence (P81908 whole entry): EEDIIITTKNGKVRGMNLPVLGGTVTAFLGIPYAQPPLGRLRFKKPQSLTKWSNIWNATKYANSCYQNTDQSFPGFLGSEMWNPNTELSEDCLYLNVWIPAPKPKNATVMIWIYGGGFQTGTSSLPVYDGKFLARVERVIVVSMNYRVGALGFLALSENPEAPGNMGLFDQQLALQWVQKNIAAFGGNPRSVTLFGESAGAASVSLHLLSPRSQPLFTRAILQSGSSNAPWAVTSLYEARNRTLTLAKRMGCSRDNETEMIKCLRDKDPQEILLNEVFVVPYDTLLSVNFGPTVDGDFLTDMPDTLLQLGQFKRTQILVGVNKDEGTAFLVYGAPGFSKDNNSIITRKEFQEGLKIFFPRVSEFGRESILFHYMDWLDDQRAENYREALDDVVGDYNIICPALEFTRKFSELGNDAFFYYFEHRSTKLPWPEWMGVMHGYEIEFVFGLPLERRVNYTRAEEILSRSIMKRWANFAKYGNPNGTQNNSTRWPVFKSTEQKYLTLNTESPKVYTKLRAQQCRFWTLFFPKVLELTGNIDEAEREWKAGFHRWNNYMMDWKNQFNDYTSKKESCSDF
Experimental: as §1, §2

[10] = molecular target: T2, acetylcholinesterase (AchE: EC 3.1.1.7) (Electrophorus electricus, UniProt O42275); assay: Hydrolysis of III by purified acetylcholinesterase; format: biochemical, electrical eel
T2 construct: acetylcholine esterase from electrical eel (EC 3.1.1.7, Sigma C2629); purchased Sigma C2629; host or cells: electric eel
T2 sequence (O42275 24-633): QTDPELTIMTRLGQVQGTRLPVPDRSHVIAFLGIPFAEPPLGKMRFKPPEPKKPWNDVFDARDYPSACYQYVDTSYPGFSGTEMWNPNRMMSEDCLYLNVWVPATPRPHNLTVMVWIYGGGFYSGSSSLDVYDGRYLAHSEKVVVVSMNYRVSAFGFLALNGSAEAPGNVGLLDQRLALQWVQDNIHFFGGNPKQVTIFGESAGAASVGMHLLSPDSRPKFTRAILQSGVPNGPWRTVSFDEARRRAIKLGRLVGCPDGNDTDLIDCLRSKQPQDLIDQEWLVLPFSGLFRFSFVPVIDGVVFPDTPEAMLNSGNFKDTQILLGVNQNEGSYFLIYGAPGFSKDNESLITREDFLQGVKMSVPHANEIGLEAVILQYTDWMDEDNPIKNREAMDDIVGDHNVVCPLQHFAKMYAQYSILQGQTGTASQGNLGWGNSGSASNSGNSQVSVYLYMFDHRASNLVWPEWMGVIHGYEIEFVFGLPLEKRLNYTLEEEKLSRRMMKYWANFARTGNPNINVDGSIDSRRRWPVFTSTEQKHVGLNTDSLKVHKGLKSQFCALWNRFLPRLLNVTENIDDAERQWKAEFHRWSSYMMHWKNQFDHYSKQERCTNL
Experimental: as §1, §2

[11] = test system: plasma blood esterases; assay: Stabilization of III in mouse blood by carboxylesterase inhibitors; format: in vitro ADME
Experimental: Heparinized fresh mouse blood (1.6 mL) from […] was added to Vacutainer Tubes: Cat # 367587, lot 2079758, approx. 2 mL volume (3 mg NaF+6 mg disodium EDTA/tube) and spiked with III at 20 ng/mL blood, with concentration of NaF in blood of […]. Samples were incubated in duplicate at 37° C. up to 2 h. Control samples were incubated in eppendorf tubes without sodium fluoride. Blood concentrations of III and its aniline metabolite were assayed by LC/MS/MS by procedure described in Example 6.

[12] = Hydrolysis of III in liver microsomes of several species; format: in vitro ADME, human, monkey, dog, rabbit, rat, mouse; details: rates per mg protein vary with species
Experimental: FIG. 4A and FIG. 4B show the stability of […] when incubated in presence of microsomes prepared from human liver (FIG. 4A) or rat liver (FIG. 4B).

[13] = Metabolic stability in rat liver microsomes; format: in vitro ADME, Sprague-Dawley rat; details: rat liver microsomes (FIG. 4B)
Experimental: as §3

[14] = In vivo metabolite profile of 14C-labeled II in rats; parameters: species or system Sprague Dawley rats; details: intravenous administration, HPLC
Experimental: Following administration of the compound to rats, plasma and liver were analyzed by HPLC for drug related metabolites.
Male Sprague Dawley rats were given either a single 1 mg/kg (1 mL/kg) bolus intravenous dose in 70% polyethylene glycol (PEG) 400/30% saline via a tail vein, or a single 1 mg/kg (2 mL/kg) oral dose in 4% polysorbate 80/96% saline of ^14C-labeled anti-HCV II, with radioactive dose of about 30 μCi per animal.
Groups of rats (n=2/dose route/time point) were sacrificed at specified times from 0 to 3 h after dosing. Heparinized plasma and liver were harvested and stored at −70° C. until analyzed. The plasma was assayed by liquid scintillation counting (LSC) in Beckman LS-6000LL Liquid Scintillation Counter.
Livers were homogenized in deionized water, combusted and analyzed by LSC. Portion of the homogenate was extracted by sonication with acetonitrile, centrifuged, and subjected to radioprofiling of supernatant by the Liquid Chromatography with Accurate Radioisotope Counting (LC-ARC). Agilent Series 1100 with Packard Radiomatic 150 radioactivity detector was used for analysis. Waters Spherisorb ODS1, 5 μm, 250×4.6 mm column was used, with mobile phase A: water/acetic acid/ammonium hydroxide (2000:20:20, v/v/v), B: acetonitrile. The radioactivity of peaks was calculated using ARC Data System software.

[15] = Human Intestine (pooled 2 subjects), BNPP 50 μM
[16] = Human Intestine (pooled 2 subjects), BNPP 500 μM

With `O=[N+]([O-])c1ccc(OP(=O)(O)Oc2ccc([N+](=O)[O-])cc2)cc1` [BNPP, bis(p-nitrophenyl) phosphate] as the compound, how does the “inhibition of hydrolysis of III” value [1] read?
Its value is “Complete inhibition”.

What about the IC50 [2] of the same compound?
Its IC50 is 10 to 50 µM.

What about the “levels of parent compound in the liver” value [3] of the same compound?
The value was “significantly increased”.

And the Activity [4, 15]?
The Activity was 28%.

And the Inhibition [4, 15]?
The Inhibition was 72%.

What about the Activity ([4]; Human Intestine (pooled 2 subjects), BNPP 50 μM, hydrolysis of Compound III 1.8 μM) of the same compound?
Its Activity is 432 pmol/min/mg.

And the Activity [4, 16]?
Its Activity is 2.6%.

What about the Inhibition [4, 16] of the same compound?
Its Inhibition is 97%.

What about the Activity ([4]; Human Intestine (pooled 2 subjects), BNPP 500 μM, hydrolysis of Compound III 1.8 μM) of the same compound?
The Activity was 39 pmol/min/mg.

And the Activity ([5]; Subject 1, BNPP 50 μM)?
The Activity was 75%.

And the Inhibition ([5]; Subject 1, BNPP 50 μM)?
The Inhibition was 25%.

And the Activity ([5]; Subject 1, BNPP 50 μM, hydrolysis of Compound III 1.8 μM)?
The Activity was 192 pmol/min/mg.

And the Activity ([5]; Subject 2, BNPP 50 μM)?
Its Activity is 121%.

And the Inhibition ([5]; Subject 2, BNPP 50 μM)?
Its Inhibition is 0%.

And the Activity ([5]; Subject 2, BNPP 50 μM, hydrolysis of Compound III 1.8 μM)?
Its Activity is 232 pmol/min/mg.

Which “hydrolysis of III by purified enzyme” value [6] does the source give for `O=C(Nc1ccnc(-c2cc(-c3c(Cl)cccc3Cl)no2)c1)C(Cl)Cl` [Compound III] here?
Its value is “efficiently hydrolyzed”.

What about the Cmax [7] of the same compound?
Its Cmax is “increased”.

And the “bioavailability (F)” value [7]?
The value was “increased”.

What about the circulating metabolite [7] of the same compound?
The circulating metabolite was “significantly reduced”.

And the “plasma exposure (AUC)” value [7]?
The value was “increased”.

What about the “metabolic stability in vitro of III” value ([8]; human liver microsomes, absence or presence of NADPH) of the same compound?
Its value is “Rapid disappearance of the parent compound”.

And the “hydrolysis of III by purified enzyme” value [9]?
Its value is “not an efficient substrate”.

What about the Activity ([4]; Human Intestine (pooled 2 subjects) microsomes, BNPP 0 μM, substrate 1.8 μM, substrate disappearance) of the same compound?
The Activity was 1516 pmol/min/mg.

What about the “hydrolysis of III by purified enzyme” value [10] of the same compound?
The value was “not an efficient substrate”.

And the “stability of III in blood” value ([11]; absence of NaF)?
Its value is “rapid decrease in the levels of compound”.

And the “hydrolysis of III and conversion to aniline metabolite” value [12]?
Its value is “occurs in microsomes prepared from livers of human, monkey, dog, rabbit, rat, and mouse”.

What about the Activity ([5]; Subject 1 microsomes, BNPP 0 μM, substrate 1.8 μM, substrate disappearance) of the same compound?
Its Activity is 257 pmol/min/mg.

What about the Activity ([5]; Subject 2 microsomes, BNPP 0 μM, substrate 1.8 μM, substrate disappearance) of the same compound?
Its Activity is 192 pmol/min/mg.

What does the source list for `O=C(Nc1cccc(-c2cc(-c3c(Cl)cccc3Cl)no2)c1)C(Cl)Cl` [Compound II]?
stability of II in microsomes [13]: Rapid disappearance of parent compound; stability of II in microsomes ([8]; human liver microsomes (FIG. 4A)): Rapid disappearance of parent compound; metabolite profile in plasma and liver [14]: Aniline is the major product

What does the source list for `[F-].[Na+]` [NaF, Sodium fluoride]?
inhibition of hydrolysis of III [1]: Complete inhibition; effect of inhibitor on hydrolysis of III in blood ([11]; 50 mM NaF): prevented hydrolysis

With `O=S(=O)(F)Cc1ccccc1` [PMSF, phenylmethanesulphonyl fluoride] as the compound, how does the “effect on hydrolysis of III” value [1] read?
Its value is “weak inhibition”.

Which “effect on hydrolysis of III” value [1] does the source give for `CCCC(C(=O)OCCN(CC)CC)(c1ccccc1)c1ccccc1` [Proadifen, proadifen] here?
The value was “did not affect hydrolysis”.
